{"source": "patent US12708113B2", "about": "“Herbicidal compositions and methods of use thereof” (Valent U.S.A. LLC, priority 2018, dated 2026)", "experiment": "Metribuzin solubility in salt solutions", "format": "physicochemical", "details": "ammonium sulfate, ammonium acetate and potassium citrate tribasic monohydrate solutions; FIG. 1", "protocol": "Metribuzin is partially soluble in water. Because of its partial solubility metribuzin grows crystals in aqueous solutions. It is a discovery of the present invention that, if water solubility of metribuzin is lowered, then crystal growth is inhibited or reduced. To determine if salts could lower the water solubility of metribuzin, metribuzin was added to the saturation point to several concentrations of ammonium sulfate, ammonium acetate and potassium citrate tribasic monohydrate solutions. Results can be seen in FIG. 1.", "data": [{"smiles": "CSc1nnc(C(C)(C)C)c(=O)n1N", "note": "[metribuzin, Metribuzin]", "values": [{"measurement": "water solubility of metribuzin versus salt concentration", "value": "negatively correlated"}]}]}
